The values below come from ChEMBL document CHEMBL1154295, “Potent and selective steroidal inhibitors of 17beta-hydroxysteroid dehydrogenase type 7, an enzyme that catalyzes the reduction of the key hormones estrone and dihydrotestosterone” (J Med Chem, 2009).

In assay [1] the target is T1, 3-keto-steroid reductase/17-beta-hydroxysteroid dehydrogenase 7 (Homo sapiens) (UniProt P56937).
T1 sequence (whole entry): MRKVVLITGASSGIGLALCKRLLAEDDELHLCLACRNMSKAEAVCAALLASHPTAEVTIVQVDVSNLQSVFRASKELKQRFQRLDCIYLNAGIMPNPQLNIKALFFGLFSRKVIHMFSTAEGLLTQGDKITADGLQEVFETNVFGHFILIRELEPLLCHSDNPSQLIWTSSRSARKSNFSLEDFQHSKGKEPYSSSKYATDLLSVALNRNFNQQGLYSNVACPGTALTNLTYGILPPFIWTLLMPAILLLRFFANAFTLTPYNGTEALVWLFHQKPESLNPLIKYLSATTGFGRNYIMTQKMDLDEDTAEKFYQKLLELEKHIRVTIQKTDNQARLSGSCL
Particulars: HEK293, at 0.3 µM.
Description: Inhibition of human 17beta-HSD7 expressed in HEK293 cells assessed as inhibition of reduction of [14C]estrone into [14C]estradiol at 0.3 uM after 7 hrs

For assay [2], the target named is T1, 3-keto-steroid reductase/17-beta-hydroxysteroid dehydrogenase 7 (Homo sapiens). To be noted: HEK293, at 3 µM.
Description: Inhibition of human 17beta-HSD7 expressed in HEK293 cells assessed as inhibition of reduction of [14C]estrone into [14C]estradiol at 3 uM after 7 hrs

Take `O=c1oc2cc(O)ccc2c2oc3cc(O)ccc3c12`: the figures for the inhibition in assay [1] and in assay [2] were 5.5% and 2.3%, respectively.
As to `C[C@]12CCC(=O)N[C@@H]1CC[C@@H]1[C@@H]2CC[C@]2(C)[C@@H](N(C(=O)c3ccccc3)c3ccccc3)CC[C@@H]12`, the inhibition in assay [1] came out at 24%; in assay [2] it was 64.1%.
As for `CN1C(=O)C=C[C@]2(C)[C@H]3CC[C@]4(C)[C@@H](N(C(=O)NC5CCCCC5)C5CC5)CC[C@H]4[C@@H]3CC[C@@H]12`, the values for the inhibition in assay [1] and in assay [2] were 8.2% and 0.8%, respectively.
In the case of `C[C@]12CC[C@@H]3c4ccc(O)cc4CC[C@H]3[C@@H]1CC[C@@]21CCCC(=O)O1`, the inhibition in assay [1] is 0%; in assay [2], 13.8%.
Take `CCC[C@]1(O)CC[C@H]2[C@@H]3CC[C@H]4N(C)C(=O)CC[C@]4(C)[C@H]3CC[C@@]21C`: the values for the inhibition in assay [1] and in assay [2] were 47.6% and 98.5%, respectively.
As to `CC1(C)CC[C@@]2(CC[C@H]3[C@@H]4CC[C@H]5NC(=O)C=C[C@]5(C)[C@H]4CC[C@@]32C)OC1=O`, the inhibition in assay [1] is 5%; in assay [2], 39.6%.
For `CC(C)NC(=O)N(C1CC1)[C@H]1CC[C@H]2[C@@H]3CC[C@H]4N(C)C(=O)C=C[C@]4(C)[C@H]3CC[C@]12C`, the inhibition in assay [1] turned out to be 3.6%; in assay [2], 2.5%.
On the same counts, the results for `O=c1c(-c2ccc(O)cc2)coc2cc(O)cc(O)c12` are 0% and 0%.
On the same counts, the results for `CCCN(CC1C2CC3CC(C2)CC1C3)C[C@@]1(O)CC[C@@]2(C)[C@@H](CC[C@@H]3[C@@H]2CC[C@]2(C)C(=O)CC[C@@H]32)C1` (stereo not given in full) are 29% and 18.8%.
As for `CC1(C)CC[C@@]2(CC[C@H]3[C@@H]4CCc5cc(C(N)=S)ccc5[C@H]4CC[C@@]32C)OC1=O`, the inhibition turned out to be 18.5% in assay [1] and 60.9% in assay [2].
Turning to `CC1CC(=O)O[C@]2(CC[C@H]3[C@@H]4CCc5cc(O)ccc5[C@H]4CC[C@@]32C)C1` (stereo not given in full), the inhibition came out at 14% in assay [1] and 22.9% in assay [2].
On to `CC1CC[C@@]2(CC[C@H]3[C@@H]4CCc5cc(O)ccc5[C@H]4CC[C@@]32C)OC1=O` (stereo not given in full), for which the inhibition in assay [1] stood at 14.4%; in assay [2], 32.1%.
Turning to `C[C@]12CC[C@@H]3c4ccc(O)cc4CC[C@H]3[C@@H]1CC[C@@]21CCC(=O)O1`, the inhibition in assay [1] was determined as 3.9%; in assay [2], 3.1%.
As to `O=c1cc(-c2ccccc2)oc2cc(O)cc(O)c12`, the inhibition was 6.8% in assay [1] and 5.1% in assay [2].
In the case of `CCCCCN(C(=O)CCCC)[C@H]1CC[C@H]2[C@@H]3CC[C@H]4N(C)C(=O)CC[C@]4(C)[C@H]3CC[C@]12C`, the results for the inhibition in assay [1] and in assay [2] were 27.3% and 79.7%, respectively.
Turning to `C[C@]12CC[C@H](O)CC1=CC[C@@H]1[C@@H]2CC[C@]2(C)C(=O)CC[C@@H]12`, the inhibition turned out to be 5.7% in assay [1] and 12.1% in assay [2].
As for `CC1(C)CC[C@@]2(CC[C@H]3[C@@H]4CCc5cc(C(N)=O)ccc5[C@H]4CC[C@@]32C)OC1=O`, the inhibition in assay [1] was 11.6%; in assay [2] it was 27%.
`C=CC[C@@]1(O)CC[C@H]2[C@@H]3CC[C@H]4N(C)C(=O)CC[C@]4(C)[C@H]3CC[C@@]21C`: the inhibition in assay [1] worked out at 13.3%; in assay [2], 4.9%.
As for `CCOc1ccc2c(c1)CC[C@@H]1[C@@H]2CC[C@@]2(C)[C@H]1CC[C@@]21CCC(C)(C)C(=O)O1`, the results for the inhibition in assay [1] and in assay [2] were 20.6% and 29.3%, respectively.
Turning to `CN(C(=O)NC1CCCCC1)[C@H]1CC[C@H]2[C@@H]3CC[C@H]4N(C)C(=O)CC[C@]4(C)[C@H]3CC[C@]12C`, the inhibition in assay [1] was 12.2%; in assay [2], 16.3%.
In the case of `CC1(C)CC[C@@]2(CC[C@H]3[C@@H]4CCc5cc(C(=O)Oc6ccccc6)ccc5[C@H]4CC[C@@]32C)OC1=O`, the inhibition in assay [1] is 14%; in assay [2], 28.6%.
The matching figures for `C[C@]12CC[C@](O)(Cc3ccccc3)C[C@@H]1CC[C@@H]1[C@@H]2CC[C@]2(C)C(=O)CC[C@@H]12`: 19.3% and 22.2%.
In the case of `CC/C(=C(\c1ccccc1)c1ccc(OCCN(C)C)cc1)c1ccccc1`, the values for the inhibition in assay [1] and in assay [2] were 8.9% and 3.2%, respectively.
The matching figures for `CC(C)C(=O)N(c1ccc([N+](=O)[O-])c(C(F)(F)F)c1)[C@H]1CC[C@H]2[C@@H]3CC[C@H]4N(C)C(=O)CC[C@]4(C)[C@H]3CC[C@]12C`: 13.7% and 71.3%.
Regarding `CC(C)C(=O)Nc1ccc([N+](=O)[O-])c(C(F)(F)F)c1`, the inhibition in assay [1] amounted to 18.6%; in assay [2], 10.8%.
On the same counts, the results for `C[C@]12CC[C@@H]3c4ccc(S(N)(=O)=O)cc4CC[C@H]3[C@@H]1CCC2=O` are 4.2% and 6.1%.
The matching figures for `COc1cc2c(cc1O)CC[C@@H]1[C@@H]2CC[C@]2(C)C(=O)CC[C@@H]12`: 18.4% and 13.4%.
In turn, `C[C@]12CC[C@H](O)C=C1CC[C@@H]1[C@@H]2CC[C@]2(C)C(=O)CC[C@@H]12` had an inhibition in assay [2] of 12.2%.
The compound `C[C@]12CC[C@H](O)C[C@@H]1CC[C@@H]1[C@@H]2CC[C@]2(C)C(=O)CC[C@@H]12` returned an inhibition in assay [2] of 8.1%.
For `CCS(=O)(=O)Oc1ccc2c(c1)CC[C@@H]1[C@@H]2CC[C@@]2(C)[C@H]1CC[C@@]21CCC(C)(C)C(=O)O1`, the values for the inhibition in assay [1] and in assay [2] were 21% and 60.9%, respectively.
`C[C@]12C=CC(=O)C=C1CC[C@@H]1[C@@H]2CC[C@]2(C)C(=O)CC[C@@H]12`: the inhibition in assay [2] amounted to 21.3%.
Turning to `C[C@]12CCC(=O)C(O)=C1CC[C@@H]1[C@@H]2CC[C@]2(C)C(=O)CC[C@@H]12`, the inhibition is 8.1% in assay [1] and 7.1% in assay [2].
On to `C[C@]12CCC(=O)C[C@@H]1CC[C@@H]1[C@@H]2CC[C@@]2(C)[C@H]1CC[C@@]21CCCC(=O)O1`, for which the inhibition is 18.6% in assay [1] and 30.9% in assay [2].
On to `C[C@@]12C=CC[C@H]1[C@@H]1CCc3cc(O)ccc3[C@H]1CC2`, for which the inhibition in assay [1] stood at 7.5%; in assay [2], 5.8%.
Take `CN1C(=O)CC[C@]2(C)[C@H]3CC[C@]4(C)[C@@H](NC(=O)C(C)(C)C)CC[C@H]4[C@@H]3CC[C@@H]12`: the inhibition in assay [1] stood at 13.5%; in assay [2] it was 55.9%.
With `CN1C(=S)CC[C@]2(C)[C@H]3CC[C@@]4(C)[C@@H](CC[C@@]45CCCC(=O)O5)[C@@H]3CC[C@@H]12`, the inhibition in assay [1] was 11.9%; in assay [2], 12.9%.
In the case of `CN(C)C(=O)c1ccc2c(c1)CC[C@@H]1[C@@H]2CC[C@@]2(C)[C@H]1CC[C@@]21CCC(C)(C)C(=O)O1`, the inhibition in assay [1] amounted to 15.2%; in assay [2] it was 36.1%.
Turning to `COc1ccc(N(C(=O)C(C)C)[C@H]2CC[C@H]3[C@@H]4CC[C@H]5N(C)C(=O)CC[C@]5(C)[C@H]4CC[C@]23C)cc1`, the inhibition in assay [1] worked out at 41.1%; in assay [2] it was 99.8%.
Consider `CC1(C)CC[C@@]2(CC[C@H]3[C@@H]4CCc5cc(O)ccc5[C@H]4CC[C@@]32C)OC1=O`, for which the inhibition in assay [1] came out at 20.1%; in assay [2], 69.4%.
On to `C[C@]12CC[C@H]3[C@@H](CCC4=CC(=O)CC[C@@]43C)[C@@H]1CC[C@@H]2C(=O)CO`, for which the figures for the inhibition in assay [1] and in assay [2] were 11.2% and 11.9%, respectively.
Take `C[C@@]12CCC[C@H]1[C@@H]1CCc3cc(O)ccc3[C@H]1CC2`: the figures for the inhibition in assay [1] and in assay [2] were 4.5% and 6%, respectively.
As to `C[C@]12CC=C3c4ccc(O)cc4CC[C@H]3[C@@H]1CCC2=O`, the inhibition in assay [2] was 24%.
In assay [2], `CC(C)(O)C(=O)Nc1ccc([N+](=O)[O-])c(C(F)(F)F)c1` yielded an inhibition of 8.2%.
As for `C[C@]12CC[C@@H]3c4ccc(O)cc4C[C@@H](CCCCCCCCC[S+]([O-])CCCC(F)(F)C(F)(F)F)[C@H]3[C@@H]1CC[C@@H]2O` (stereo not given in full), the inhibition in assay [2] came to 15.7%.
On the same count and under the same terms, the figure for `CCC(=C(c1ccc(O)cc1)c1ccc(OCCN(C)C)cc1)c1ccccc1` is 3%; for `C[C@]12CC[C@H]3[C@@H](CCC4=CC(=O)CC[C@@]43C)[C@@H]1CC[C@@H]2O` it is 7.5%.
Turning to `CC(=O)[C@@]1(O)CC[C@H]2[C@@H]3CC=C4C[C@@H](O)CC[C@]4(C)[C@H]3CC[C@@]21C`, in assay [2], the inhibition amounted to 4.1%.
In assay [2], `C[C@]12CC[C@H]3C(=CCc4cc(O)ccc43)[C@@H]1CCC2=O` showed an inhibition of 0%.
In assay [2], `CC(=O)[C@H]1CC[C@H]2[C@@H]3CC=C4C[C@@H](O)CC[C@]4(C)[C@H]3CC[C@]12C` displayed an inhibition of 13.2%.
In the case of `C[C@]12CCC(=O)C[C@@H]1CC[C@@H]1[C@@H]2CC[C@@]2(C)[C@H]1CC[C@]2(O)C(=O)CO`, the inhibition in assay [2] stood at 13.4%.
The same measure, in the same setting: the figure for `CC(=O)[C@@]1(O)CC[C@H]2[C@@H]3CCC4=CC(=O)CC[C@]4(C)[C@H]3CC[C@@]21C` is 20.8%.
For `C[C@]12CC[C@@H](O)C[C@@H]1CC[C@@H]1[C@@H]2CC[C@]2(C)C(=O)CC[C@@H]12`, the inhibition in assay [2] was 2.2%.
On the same count and under the same terms, the figure for `C[C@]12CCC(=O)C=C1CC[C@@H]1[C@@H]2[C@@H](O)C[C@@]2(C)[C@H]1CC[C@]2(O)C(=O)CO` is 10.3%; for `C[C@]12CCC(=O)C[C@@H]1CC[C@@H]1[C@@H]2[C@@H](O)C[C@@]2(C)[C@H]1CC[C@]2(O)C(=O)CO` it is 17.2%.
As to `C[C@]12CC[C@@H]3c4ccc(O)cc4CC[C@H]3[C@@H]1CC[C@H]2O`, the inhibition in assay [2] worked out at 0%.
`C[C@]12CC[C@@H]3c4ccc(O)cc4CC[C@H]3[C@@H]1C[C@@H](O)[C@@H]2O` returned an inhibition in assay [2] of 29.5%.
With `C[C@]12CC[C@@H]3c4ccc(O)cc4CC[C@H]3[C@@H]1CCC2=O`, the inhibition in assay [2] came out at 10.1%.

One may read the inhibition as the change of the read-out against control, counted positive when it falls.
